Data set [1] has as its target T1, human recombinant 5-HT2A receptor (Homo sapiens, UniProt P28223).
T1 construct: expressed in transfected cells; host or cells: Jump-In HEK cells (membrane preparation)
Briefly: Test Example 1: 5-HT2A receptor binding inhibition test ([3H]-Ketanserin; non-specific ligand Serotonin HCl). How it is done:
The Kd value is calculated when the lot of the cell membrane is changed. 1 mmol/L non-specific binding calculating compound dissolved in DMSO or DMSO is previously dispensed to the microplate by 0.5 µL, and the cell membrane is diluted with an Assay buffer. The radioactive ligand solution is diluted step by step, and counts are checked with a liquid scintillator. The Assay buffer containing diluted cell membranes is dispensed by 50 µL/well into the microplate. The radioactive ligand solution is then dispensed by 50 µL/well into the microplate and the plate is sealed. The microplate is allowed to stand for 1.5 hours at room temperature (25°C). During this time, 50 mmol/L Tris-HCl (pH 7.4) is dispensed by 50 µL/well on the GF/B UniFilter plate and allowed to stand at 4°C for 1 hour or longer. Thereafter, filtration is performed with a Cell Harvester (PerkinElmer). The radioactive ligand solution is dispensed by 10 µL/well into empty wells of the GF/B UniFilter plate. After drying the GF/B UniFilter plate at room temperature, MicroScinti20 is dispensed by 50 µL/well into the GF/B UniFilter plate, and the plate is sealed. GF/B UniFilter plate is allowed to stand at room temperature overnight. The radioactivity of [^3H]-Ketanserin bound to the 5-HT2A receptor is measured using Microbeta2 (PerkinElmer) at a measurement time of 1 min/well. The Saturation curve is drawn from the measured value, and the Kd value is calculated from the slope of the Scatchard Plot.
A compound solution dissolved in DMSO is dispensed to a microplate by 0.5 µL, and a cell membrane and a hot ligand are each diluted with an Assay buffer. The Assay buffer containing diluted cell membrane is then dispensed by 50 µL/well into the microplate. The radioactive ligand solution is then dispensed by 50 µL/well into the microplate and the plate is sealed. Thereafter, the microplate is allowed to stand at room temperature (25°C) for 1.5 hours. During this time, 50 mmol/L Tris-HCl (pH 7.4) is dispensed by 50 µL/well into the GF/B UniFilter plate and allowed to stand at 4°C for 1 hour or longer. Thereafter, filtration is performed with a Cell Harvester (PerkinElmer). After drying the GF/B UniFilter plate at room temperature, MicroScinti20 is dispensed by 50 µL/well into the GF/B UniFilter plate, and the plate is sealed. GF/B UniFilter plate is allowed to stand at room temperature overnight. The radioactivity of [^3H]-Ketanserin bound to the 5-HT2A receptor is measured using Microbeta2 (PerkinElmer) at a measurement time of 1 min/well. Non-specific binding is calculated from the radioactivity of [^3H]-Ketanserin in the presence of 500 µmol/L Serotonin HCl of unlabeled ligand, and total binding is calculated from the radioactivity of [^3H]-Ketanserin in the absence of the compound of the present invention (Vehicle). Finally, the Ki value is calculated from the dose-response curve.
(The binding activity of the compound according to the present invention is calculated from the following binding inhibition rate (%).) Inhibition rate (%) = [1−(c−a)/(b−a)] × 100 [formula] • a; average cpm of non-specific binding • b; average cpm of total binding • c; cpm in the presence of the test compound
The compounds of the present invention were tested essentially as described above.

The target in data set [2] is T2, CYP3A4 (Homo sapiens, UniProt P08684).
T2 construct: pooled human liver microsomes by 1-hydroxylation reaction of midazolam (MDZ) as a marker reaction; from tissue; host or cells: pooled human liver microsomes
T2 sequence (P08684 whole entry): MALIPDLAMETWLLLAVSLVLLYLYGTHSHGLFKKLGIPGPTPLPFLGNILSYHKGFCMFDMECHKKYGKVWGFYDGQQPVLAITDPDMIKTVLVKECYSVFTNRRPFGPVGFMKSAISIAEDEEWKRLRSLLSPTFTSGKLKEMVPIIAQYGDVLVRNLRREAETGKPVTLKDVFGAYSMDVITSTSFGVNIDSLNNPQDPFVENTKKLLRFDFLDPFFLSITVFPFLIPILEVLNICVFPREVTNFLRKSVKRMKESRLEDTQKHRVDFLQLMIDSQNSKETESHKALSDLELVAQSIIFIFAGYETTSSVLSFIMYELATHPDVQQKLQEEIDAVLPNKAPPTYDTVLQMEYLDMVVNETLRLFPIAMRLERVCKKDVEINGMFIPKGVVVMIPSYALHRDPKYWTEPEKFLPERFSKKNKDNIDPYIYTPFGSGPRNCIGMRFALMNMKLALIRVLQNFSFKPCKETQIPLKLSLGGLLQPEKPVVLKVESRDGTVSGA
Put plainly: Test Example 8: CYP3A4 (MDZ) MBI test. Format: in vitro ADME. Particulars: pooled human liver microsomes; substrate 10 µmol/L MDZ; pre-reaction 0 or 30 minutes; compound 0.83, 5, 10, 20 µmol/L. The procedure: CYP3A4 (MDZ) MBI test is a test of investigating MBI potential on CYP3A4 by the enhancement of inhibitory degree of a metabolic reaction caused by the compound of the present invention. CYP3A4 inhibition is evaluated using pooled human liver microsomes by 1-hydroxylation reaction of midazolam (MDZ) as a marker reaction.
The reaction conditions are as follows: substrate, 10 µmol/L MDZ; pre-reaction time, 0 or 30 minutes; substrate reaction time, 2 minutes; reaction temperature, 37°C; pooled human liver microsomes, at pre-reaction 0.5 mg/mL, at reaction 0.05 mg/mL (at 10-fold dilution); concentrations of the compound of the present invention, at pre-reaction 0.83, 5, 10, 20 µmol/L (4 points).
Pooled human liver microsomes and a solution of the compound of the present invention in K-Pi buffer (pH 7.4) as a pre-reaction solution are added to a 96-well plate at the composition of the pre-reaction. A part of pre-reaction solution is transferred to another 96-well plate, and diluted 10-fold by K-Pi buffer containing a substrate. NADPH as a cofactor is added to initiate a reaction as a marker reaction (without preincubation). After a predetermined time of the reaction, methanol/acetonitrile=1/1 (V/V) solution is added to stop the reaction. NADPH is also added to the remaining pre-reaction solution to initiate the pre-reaction (with pre-reaction), and after the pre-reaction for a predetermined time, a part is transferred to and diluted 10-fold by K-Pi buffer containing a substrate to initiate the reaction as a marker reaction. After a predetermined reaction time, the reaction is stopped by adding a methanol/acetonitrile = 1/1 (V/V) solution. Each plate where the indicator reaction has been performed is centrifuged at 3000 rpm for 15 minutes. Then, midazolam 1-hydroxide in the centrifuged supernatant is quantified by LC/MS/MS.
The sample adding DMSO as a solvent to a reaction system instead of a solution dissolving the compound of the present invention is adopted as a control (100 %). Remaining activity (%) is calculated at each concentration of the compound of the present invention compared to a control, and IC value is calculated by reverse-presumption by a logistic model using a concentration and an inhibition rate. Shifted IC value is calculated as "IC of preincubation at 0 minutes/ IC of preincubation at 30 minutes". When a shifted IC is 1.5 or more, this is defined as positive. When a shifted IC is 1.0 or less, this is defined as negative.
A general note: Liver microsomes are vesicles of endoplasmic reticulum, rich in cytochrome P450 enzymes.

SMILES strings stand for the structures. Where two headings read alike, the source gives them in different places.

T1 sequence (P28223 whole entry): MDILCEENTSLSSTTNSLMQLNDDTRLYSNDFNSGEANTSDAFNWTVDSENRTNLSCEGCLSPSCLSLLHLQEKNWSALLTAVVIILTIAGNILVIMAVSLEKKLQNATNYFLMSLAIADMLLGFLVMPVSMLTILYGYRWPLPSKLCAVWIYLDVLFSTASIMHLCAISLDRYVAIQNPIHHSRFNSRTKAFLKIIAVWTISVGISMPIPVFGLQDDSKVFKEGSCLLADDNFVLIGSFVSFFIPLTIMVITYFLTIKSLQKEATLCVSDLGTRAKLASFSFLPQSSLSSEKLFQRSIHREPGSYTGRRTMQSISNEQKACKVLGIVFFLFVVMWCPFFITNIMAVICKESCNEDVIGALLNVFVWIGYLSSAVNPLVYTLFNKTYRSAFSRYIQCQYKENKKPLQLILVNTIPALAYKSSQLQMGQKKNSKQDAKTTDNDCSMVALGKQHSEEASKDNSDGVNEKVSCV

For `Cn1ncc(Br)c1-c1cc(Nc2ncc(C(F)(F)F)cc2F)ccc1OCCO` [Compound I-006], in data set [1], the Ki was found to be 0.317 nM.

Take `Cc1cnn(C)c1-c1cc(Nc2ncc(C(F)(F)F)cc2F)ccc1OCCO` [Compound I-008]: the Ki in data set [1] ([3H]-Ketanserin, non-specific binding with 500 µmol/L Serotonin HCl, room temperature (25°C), 1.5 hours, read-out: h 5-HT2A Ki) was 0.344 nM.

On to `Cn1ncc(F)c1-c1cc(Nc2ncc(C(F)(F)F)cc2F)cnc1OCCO` [Compound I-127], for which, in data set [2], the “CYP3A4 (MDZ) MBI (shifted IC: IC of preincubation at 0 minutes/ IC of preincubation at 30 minutes)” value is on record as “Negative (When a shifted IC is 1.0 or less, this is defined as negative)”.

Regarding `COCc1nc(C)c(-c2cc(Nc3ncc(OC(F)(F)F)cc3Cl)ncc2OCCO)c(C)n1` [Compound I-200], the “CYP3A4 (MDZ) MBI (shifted IC: IC of preincubation at 0 minutes/ IC of preincubation at 30 minutes)” value in data set [2] is reported as “Negative (When a shifted IC is 1.0 or less, this is defined as negative)”.

In the case of `COCc1nc(C)c(-c2nc(Nc3ccc(C(F)(F)F)c(C)n3)c(F)cc2OCCO)c(C)n1` [Compound I-247], in data set [2], the “CYP3A4 (MDZ) MBI (shifted IC: IC of preincubation at 0 minutes/ IC of preincubation at 30 minutes)” value was “Negative (When a shifted IC is 1.0 or less, this is defined as negative)”.

Take `Cc1nc(COC2COC2)nc(C)c1-c1cc(Nc2ncc(C(F)(F)F)cc2Cl)ncc1OCCO` [Compound I-376]: the “CYP3A4 (MDZ) MBI (shifted IC: IC of preincubation at 0 minutes/ IC of preincubation at 30 minutes)” value in data set [2] was “Negative (When a shifted IC is 1.0 or less, this is defined as negative)”.

As for `Cc1nc(CO[C@@H]2CCOC2)nc(C)c1-c1cc(Nc2ncc(C(F)(F)F)cc2Cl)ncc1OCCO` [Compound I-378], in data set [2], the “CYP3A4 (MDZ) MBI (shifted IC: IC of preincubation at 0 minutes/ IC of preincubation at 30 minutes)” value is recorded as “Negative (When a shifted IC is 1.0 or less, this is defined as negative)”.

Usually Ki stands for a measure of affinity in units of concentration, obtained from inhibition or displacement.

(Values after patent EP4631938A1, “NITROGEN-CONTAINING HETEROCYCLE WITH SEROTONIN RECEPTOR-BINDING ACTIVITY AND CARBOCYCLIC DERIVATIVE” (Shionogi & Co., Ltd, priority 2022, dated 2024).)
